In this experiment the target is SARS2 coronavirus 3CL protease (Severe acute respiratory syndrome coronavirus 2, UniProt P0DTD1). Nature of the experiment: SARS2 Coronavirus 3CL Protease Assay (FRET). It is filed as biochemical. Conditions: 5 nM protease pre-incubated with compound 30 minutes; 15 uM peptide substrate; 4 h room temperature; read-out: FRET Potency (nM); IC50 values in the SARS2 3CLPro FRET assay. The procedure: The enzymatic activity of SARS2 coronavirus 3CL protease was determined in a FRET (fluorescence resonance energy transfer)-based assay measuring the cleavage of a peptide substrate by recombinantly expressed and purified enzyme. Cleavage of the peptide SEQ ID NO: 1 (CPC Scientific) by SARS2 3CL protease was measured in reaction buffer (50 mM Hepes pH 7.5, 0.01% Triton X-100, 0.01% BSA, 2 mM DTT). […] Room temperature reactions (4 h) were quenched by addition of a high dose of inhibitor and read on an appropriate plate reader (excitation wavelength=495 nm, emission wavelength=520 nm). Data were analyzed by a standard 4 parameter fit to determine IC50 values.
Regarding `CNC(=O)C(=O)[C@H](CCC(C)(F)F)NC(=O)c1cc(Cl)ccc1NC(=O)OC` [Example 49, methyl N-[4-chloro-2-[[(1S)-4,4-difluoro-1-[2-(methylamino)-2-oxo-acetyl]pentyl]carbamoyl]phenyl]carbamate], the IC50 is 7.1 nM.

For the compound `CNC(=O)C(=O)[C@H](CCC(C)(F)F)NC(=O)c1cc(Cl)ccc1NC(=O)C1CN(C)C1` [Example 50, N-[4-chloro-2-[[(1S)-4,4-difluoro-1-[2-(methylamino)-2-oxo-acetyl]pentyl]carbamoyl]phenyl]-1-methyl-azetidine-3-carboxamide], the IC50 was 21.8 nM.

Turning to `CNC(=O)C(=O)[C@H](CCC(C)(F)F)NC(=O)c1cc(Cl)ccc1NC(=O)c1cncc(C#N)c1` [Example 51, N-[4-chloro-2-[[(1S)-4,4-difluoro-1-[2-(methylamino)-2-oxo-acetyl]pentyl]carbamoyl]phenyl]-5-cyano-pyridine-3-carboxamide], the IC50 amounted to 15.1 nM. With `CNC(=O)C(=O)[C@H](CCC(C)(F)F)NC(=O)c1cc(Cl)ccc1NC(=O)c1cccnc1` [Example 52] the figure was 15.6 nM. As to `CC(F)(F)CC[C@H](NC(=O)c1cc(Cl)ccc1NC(=O)CCC(F)(F)F)C(=O)C(N)=O` [Example 53, 5-chloro-N-[(1S)-4,4-difluoro-1-oxamoyl-pentyl]-2-(4,4,4-trifluorobutanoylamino) benzamide], the IC50 was determined as 97.5 nM. For `CNC(=O)C(=O)[C@H](CCC(C)(F)F)NC(=O)c1cc(Cl)cnc1NC(=O)C1CC(F)(F)C1` [Example 54, 5-chloro-2-[(3,3-difluorocyclobutanecarbonyl)amino]-N-[(1S)-4,4-difluoro-1-[2-(methylamino)-2-oxo-acetyl]pentyl]pyridine-3-carboxamide], the IC50 is 7.5 nM.

On to `CNC(=O)C(=O)[C@H](CCC(C)(F)F)NC(=O)c1cc(Cl)ncc1NC(=O)OC` [Example 55, methyl N-[6-chloro-4-[[(1S)-4,4-difluoro-1-[2-(methylamino)-2-oxo-acetyl]pentyl]carbamoyl]-3-pyridyl]carbamate], for which the IC50 turned out to be 93.8 nM. `CNC(=O)C(=O)[C@H](CCC(C)(F)F)NC(=O)c1cc(Cl)cnc1NC(=O)OC` [Example 56, methyl N-[5-chloro-3-[[(1S)-4,4-difluoro-1-[2-(methylamino)-2-oxo-acetyl]pentyl]carbamoyl]-2-pyridyl]carbamate]: the IC50 stood at 4.2 nM. For the compound `CNC(=O)C(=O)[C@H](CCC(C)(F)F)NC(=O)c1cc(Cl)ccc1NC(=O)N(C)CC1CCC(F)(F)CC1` [Example 57, (S)-5-chloro-N-(6,6-difluoro-1-(methylamino)-1,2-dioxoheptan-3-yl)-2-(3-((4,4-difluorocyclohexyl)methyl)-3-methylureido)benzamide], the IC50 was found to be 6 nM. `CNC(=O)C(=O)[C@H](CCC(C)(F)F)NC(=O)c1cc(Cl)ccc1NC(=O)C(C)C` [Example 58, 5-chloro-N-[(1S)-4,4-difluoro-1-[2-(methylamino)-2-oxo-acetyl]pentyl]-2-(2-methylpropanoylamino) benzamide]: the IC50 turned out to be 6.2 nM. With `CNC(=O)C(=O)[C@H](CCC(C)(F)F)NC(=O)c1cc(Cl)ccc1NC(=O)OC1CC1` [Example 59, cyclopropyl N-[4-chloro-2-[[(1S)-4,4-difluoro-1-[2-(mcthylamino)-2-oxo-acetyl]pentyl]carbamoyl]phenyl]carbamate] the figure was 13.1 nM. As to `CNC(=O)C(=O)[C@H](CCC(C)(F)F)NC(=O)c1cc(Cl)ccc1NC(=O)[C@H](C)OC` [Example 60, 5-chloro-N-[(1S)-4,4-difluoro-1-[2-(methylamino)-2-oxo-acetyl]pentyl]-2-[[(2S)-2-methoxypropanoyl]amino] benzamide], the IC50 was 9.4 nM.

Source of the values: patent US20260209180A1, “PROTEASE INHIBITORS FOR TREATING OR PREVENTING CORONAVIRUS INFECTION” (Merck Sharp & Dohme LLC, priority 2023, published 2026).
